Reference: PubChem BioAssay AID540258 (Broad Institute, 2011)
Active and inactive are the calls of the source.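 The calls were made as follows: active = fitted curve reaching 40% activation at or below the top valid dose tested; inconclusive = flat curve at 30 to 70% activation, or poor fit; inactive = the rest.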

Test system: SK-MEL-5 TRPM1 promoter luciferase reporter, 24 h
Experiment: activation of TRPM1 promoter luciferase in melanoma cells – SK-MEL-5 cells, cherry-pick samples, dose response (AID 540258);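 also: potency for activators that raise TRPM1 promoter luciferase signal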

Point of comparison: `CCCn1ncc2c(Nc3ccc(C)c(C)c3)ncnc21`, AC40 4.16 µM. Against it:
- Fc1ccc2nc(N3CCCC3)sc2c1 — 3-fold lower, 1.37 µM
- Cc1ccc(Nc2ncc3c(n2)CC(C)(C)CC3=O)cc1 — 6.4-fold lower, 0.65 µM
- Cc1ccc(-c2nn(-c3ccccc3)cc2/C=N/O)cc1 — 2.5-fold higher, 10.2 µM
- COc1cccc2cc(CC(=O)c3ccc(C)cc3C)c(=O)oc12 — 2.9-fold higher, 11.9 µM
- Cc1noc(N)c1C(=O)Nc1ccc(C(C)(C)C)cc1 — 2.5-fold lower, 1.66 µM
- COc1ccc2cc(CCNC(=O)c3cccs3)c(=O)[nH]c2c1 — 2.1-fold lower, 1.95 µM
- O=Cc1ccc(OCc2ccc3ccccc3c2)cc1 — 3-fold lower, 1.4 µM
- CCCc1cc(-c2ccc3c(c2)COc2c4ccccc4nn2-3)on1 — 29-fold lower, 0.145 µM
- Nc1ccc(-c2nc3ncccc3o2)c(O)c1 — within 1.5-fold, 5.79 µM
- CC1CCc2nc(NC(=O)Cc3cccs3)sc2C1 (centres undefined) — 1.6-fold lower, 2.63 µM
- NNC(=O)c1ccc2nc(-c3ccc(Br)cc3)cn2c1 — 2.7-fold higher, 11.3 µM
- Cc1ccn(-c2cccc(-n3ccc(C)n3)n2)n1 — 5-fold lower, 0.834 µM
- CN(C)c1ccc(/C=C/c2cccc[n+]2[O-])cc1 — 3.4-fold higher, 14.3 µM
- CC1(C)CN=c2s/c(=C\c3ccc(Cl)cc3)c(=O)n2C1 — 3.4-fold lower, 1.21 µM
- CCCCSc1nsc(NC(C)=O)n1 — 3.2-fold lower, 1.28 µM
- CCNc1nc(N)nc(Oc2ccc(C(=O)OC)cc2)n1 — within 1.5-fold, 3.64 µM
- CCCC(=O)N/C(N)=N/c1nc2ccccc2o1 — 7.5-fold lower, 0.558 µM
- N#C/C(=N\Nc1ccccc1F)C(=N)N1CCCCC1 — 2-fold lower, 2.13 µM
- Cc1ccc(NC(=O)C(=O)NCc2ccccn2)cc1 — 3.9-fold higher, 16.4 µM
- Cc1nc(NC(C)C)c2cnn(CCc3ccccc3)c2n1 — 1.7-fold higher, 7.11 µM
- CCCCN(C(=O)Cc1cccs1)c1nnc(-c2cccnc2)s1 — within 1.5-fold, 5.05 µM
- COc1ccc(-c2cn(CC3CCCCC3)nn2)cc1 — within 1.5-fold, 3.61 µM
- COc1ccc(/C=C2\CCn3c2nc2ccccc2c3=O)cc1OC — 4.6-fold lower, 0.899 µM
- O=C(OCc1csc(-c2ccccc2)n1)c1ccc(O)cc1 — 1.9-fold higher, 7.95 µM
- Nc1ccc(-c2nnc(-c3ccc(N)cc3)o2)cc1 — 1.7-fold lower, 2.45 µM
- O=C1c2ccccc2C(=O)N1CCc1c[nH]c2ccccc12 — 1.9-fold lower, 2.19 µM
- CCN(CC)c1ccc(Nc2nc(-c3cccnc3)cs2)cc1 — 1.6-fold lower, 2.64 µM
- O=c1c2ccccc2oc2cc(-c3ccc4cc[nH]c4c3)ccc12 — 1.8-fold lower, 2.25 µM
- O=C(NCCC1=CCCCC1)NC12CC3CC(CC(C3)C1)C2 — 5.9-fold lower, 0.703 µM
- NC(=O)c1ccc(-c2noc(-c3cccc(Cl)c3)n2)cc1 — within 1.5-fold, 3.8 µM
- Cc1ccc(NC(=O)c2sc3nc(C)cc(C)c3c2N)cc1 — 20-fold lower, 0.205 µM
- COc1ccccc1-c1cnn2c(NC3CCCC3)cc(C)nc12 — within 1.5-fold, 4.09 µM
- c1ccc2c(-c3csc(-c4ccncc4)n3)c[nH]c2c1 — within 1.5-fold, 2.93 µM
- Cc1snc2sc(C(=O)c3ccc(Br)cc3)c(N)c12 — 2.8-fold lower, 1.48 µM
- O=C(NC1CCCCCC1)c1c(O)c2ccccc2[nH]c1=O — 3.8-fold lower, 1.1 µM
- O=c1c2ccccc2oc2c1ccc1ccccc12 — 2.5-fold higher, 10.5 µM
- C/C(=N\O)c1ccc(N2C(=O)C3CC=C(Cl)CC3C2=O)cc1 (centres undefined) — within 1.5-fold, 3.5 µM
- COc1cc(CNCc2ccccn2)ccc1OCc1ccc(Cl)c(Cl)c1 — 2.3-fold higher, 9.74 µM
- Cn1c2ccccc2c(=O)c2ccc(-c3ccc4c(c3)OCO4)cc21 — 4.9-fold lower, 0.851 µM
- O=C(NCc1ccccn1)Nc1ccc(Br)cc1Cl — 3.4-fold higher, 14.3 µM
- Brc1ccccc1-n1nnc(-c2nccs2)n1 — 1.7-fold lower, 2.52 µM
- Cc1csc(NC(=O)Cc2c[nH]c3ccccc23)n1 — 6.6-fold higher, 27.3 µM
- c1cnc(Nc2nc(-c3ccc4ccccc4c3)cs2)nc1 — 8.1-fold lower, 0.516 µM
- O=c1oc2cc(Cl)ccc2n1CSc1nc2ccccc2s1 — within 1.5-fold, 4.25 µM
- CCN(CC)C(=O)OCc1c(-c2ccccc2)ncc2ccccc12 — 2.9-fold higher, 11.9 µM
- Cc1ccc(C(=O)Nc2cccc(O)c2)cc1S(=O)(=O)N1CCCCCC1 — 2-fold higher, 8.12 µM
- CCCc1cc(C(=O)Nc2cc(Cl)ccc2O)no1 — within 1.5-fold, 2.99 µM
- Cc1cccc(-c2nnc3sc(-c4ccccc4)nn23)c1 — 2.9-fold higher, 12.2 µM
- CSc1ccccc1OCc1cc(C(=O)N[C@H]2CCCCNC2=O)no1 — 1.9-fold lower, 2.22 µM
- CCc1ccc(OC(=O)Nc2ccccc2)cc1 — 8.9-fold lower, 0.469 µM
- COc1ccc(/C=N/Nc2nccnc2Cl)c(OC)c1 — 1.6-fold lower, 2.68 µM
- Cc1cc(C)c(NN=c2c(=O)c3ccccc3c2=O)c(C)c1 — 7.8-fold lower, 0.531 µM
- O=c1c2ccccc2oc2cc(NCCCn3ccnc3)ccc12 — 4.2-fold lower, 0.989 µM
- COC(=O)c1ccc(N=NN2CCCCC2)cc1 — 3.1-fold lower, 1.34 µM
- CSc1nc(N)n2nc(-c3ccc(Cl)cc3)cc2n1 — 5.7-fold lower, 0.727 µM
- COc1ccccc1NC(=O)Nc1nc2ccc(S(N)(=O)=O)cc2s1 — 2.6-fold lower, 1.57 µM
- COc1ccc(-c2cn3cccc(C)c3n2)cc1F — 7.4-fold lower, 0.565 µM
- CC/C(=N\NC(=O)c1csc(C)c1C)c1cccs1 — 5.7-fold lower, 0.733 µM
- Cc1cccc(OCc2nc(-c3nonc3N)no2)c1C — within 1.5-fold, 3.81 µM
- COc1ccc(/C=N/N=C2/SCC(=O)N2Cc2ccccc2)cc1 — 1.6-fold lower, 2.67 µM
- Cc1ccc(-n2nnc(-c3ccnc4ccccc34)n2)cc1 — within 1.5-fold, 3.49 µM
- Cc1ccnc(NC(=O)C2CC(=O)N(Cc3ccccc3)C2)c1 (centres undefined) — within 1.5-fold, 5.34 µM
- O=C(CCCc1ccccc1)c1ccccc1 — 13-fold lower, 0.326 µM
- COc1ccc(Br)c(C(=O)Nc2nc3ccccc3[nH]2)c1 — within 1.5-fold, 4.94 µM
- c1ccc(-c2ccc3[nH]ccc3c2)cc1 — 3.4-fold higher, 14 µM
- COc1ccc(NC(=O)CN(C)C(=O)CNC(=O)c2sc3ccccc3c2Cl)cc1 — 1.9-fold higher, 7.78 µM
- COc1ccc(N=C(C)c2sc3ccccc3c2O)cc1 — 2.3-fold lower, 1.82 µM
- O=C(Nc1ccc2oc(-c3ccccc3)nc2c1)c1cccnc1 — within 1.5-fold, 5.22 µM
- Cc1ccc(NC(=O)C2C3/C=C\CCCCC32)cc1 (centres undefined) — within 1.5-fold, 4.54 µM
- CCC(=O)c1ccc(OCc2ccccc2)c(OC)c1 — 1.6-fold lower, 2.57 µM
- Fc1cc(Br)ccc1COc1ccc(-c2nnco2)cc1 — within 1.5-fold, 3.08 µM
- COc1ccc2cc(C(N)=O)c(=Nc3ccccc3)oc2c1 — within 1.5-fold, 4.54 µM
- Cc1ccc(C(=O)O/N=C(\N)c2ccc(Br)cc2)cc1 — 1.9-fold higher, 7.84 µM
- CCS(=O)(=O)Nc1ccc(C(=O)NCCSc2ccccc2)cc1 — 8.3-fold higher, 34.6 µM
- COc1ccc(-c2ccc3ccccc3n2)cc1OC — 3-fold lower, 1.38 µM
- CC(C)C(=O)Nc1cccc(-c2cnc3ccccc3n2)c1 — 4.2-fold higher, 17.3 µM
- CCc1ccc(NC(=O)C(=S)NC2CCCCC2)cc1 — 7.7-fold lower, 0.542 µM
- C=CCNC(=O)c1ccc2nc(Cc3ccc(OC)cc3)oc2c1 — 1.8-fold lower, 2.37 µM
- CC(C)(C)c1cc(NC(=O)Nc2ccccc2)no1 — 4.8-fold lower, 0.864 µM
- COc1ccc(NC(=O)Nc2ccc(Br)cn2)cc1 — within 1.5-fold, 3.15 µM
- O=C(Cc1cccs1)NCc1ccc(Cl)cc1Cl — within 1.5-fold, 5.59 µM
- CCCc1cc2c(=O)c(-c3ccccn3)coc2cc1OC — 2.3-fold lower, 1.81 µM
- COc1cc(/C=C/c2nc3ccccc3c(=O)[nH]2)ccc1OC(F)F — 4.2-fold lower, 0.98 µM
- Nc1ccc(C#Cc2ccc3c(=O)c4ccccc4oc3c2)cc1 — within 1.5-fold, 4.44 µM
- O=C(NCc1ccc2c(c1)OCO2)Nc1cccc(Cl)c1 — 2.1-fold higher, 8.57 µM
- c1ccc(C2=NN(c3ccccc3)CC2)cc1 — 2.5-fold lower, 1.69 µM
- CCN1CCN(c2cc3c(nn2)Oc2ccccc2N3C)CC1 — within 1.5-fold, 5.84 µM
- COc1ccccc1/C=C/C=N/n1c(-c2ccccn2)n[nH]c1=S — 3.2-fold higher, 13.5 µM
- CN1CCN(/N=C/c2ccc(Br)cc2)CC1 — within 1.5-fold, 6 µM
- Cc1ccc(N2NC(C)(c3cccs3)NC2=S)cc1 (centres undefined) — 2.9-fold lower, 1.42 µM
- Cc1ccc(Nc2ncnc3ccccc23)cc1 — 1.9-fold lower, 2.23 µM
- CC(C)C[C@@H](CSc1ccccc1)N1CCN(CC(C)C)CCC1=O — within 1.5-fold, 4.58 µM
- O=C(N/N=C/c1ccc(Cl)cc1Cl)c1cccc(F)c1 — 2.1-fold lower, 1.95 µM
- COc1ccc(C(=O)/C=C/Nc2cccc(C)n2)cc1OC — 4.3-fold lower, 0.977 µM
- CSc1nccc(N/N=C/c2ccccc2)n1 — 8.5-fold lower, 0.491 µM
- Cn1ccs/c1=N\C(=O)Nc1ccccc1 — 2.6-fold lower, 1.59 µM
- Cc1ccc(Nc2nc(Cl)nc(NC(C)(C)C)n2)cc1 — within 1.5-fold, 3.69 µM
- CC(=O)Nc1cccc(-c2nc3ccc(NC(C)=O)cc3s2)c1 — 3.2-fold lower, 1.29 µM
- c1ccc2nc(-c3nccs3)ccc2c1 — 2.1-fold higher, 8.94 µM
- CC(C)(C)C(=O)N1CCN(c2nc3ccccc3s2)CC1 — 2.2-fold lower, 1.86 µM
- Nc1c(-c2ccc(Cl)cc2)cnn1-c1ccccc1 — 2.3-fold lower, 1.84 µM
- Cc1nn2c(-c3ccccc3)ccnc2c1-c1ccccc1 — within 1.5-fold, 4.34 µM
- O=C(CC1CCCC1)Nc1ccc(Br)cc1 — 2.8-fold higher, 11.6 µM
- Brc1csc(/C=N/Nc2nc3ccccc3s2)c1 — 6.2-fold lower, 0.667 µM
- c1csc(-c2noc(COc3ccc4c(c3)CCCC4)n2)c1 — 1.9-fold lower, 2.14 µM
- COc1ccccc1OCc1cc(-c2ccccc2)no1 — 1.8-fold lower, 2.28 µM
- C=CCC1(CC=C)CCCN1C(=O)C1CCC(=O)N(CCc2ccccc2)C1 (centres undefined) — 1.8-fold higher, 7.52 µM
- Cn1c(SCc2ccccc2Cl)nc2ccccc21 — 5.2-fold lower, 0.794 µM
- CSc1cccc(NC(=O)c2cnn3ccccc23)c1 — 4-fold lower, 1.03 µM
- c1cc(-c2cc3cc4c(cc3cn2)OCO4)cs1 — 2-fold lower, 2.12 µM
- CCCc1ccc(C(=O)NNc2ccccc2F)cc1 — 2.1-fold higher, 8.64 µM
- C#CCSc1nnc(-c2ccc(O)cc2)o1 — 2.3-fold higher, 9.52 µM
- CCCCn1cnc2sc(-c3ccccc3)cc2c1=O — 5.1-fold lower, 0.812 µM
- COCc1ccc(-c2c(-c3ccc(OC)cc3)oc(=O)c3cc(OC)c(OC)cc23)cc1 — within 1.5-fold, 3.05 µM
- O=C(NCCC1=CCCCC1)c1ccc(-n2cncn2)cc1 — within 1.5-fold, 5.08 µM
- c1ccc(-c2noc(COc3ccc4c(c3)OCO4)n2)cc1 — 1.8-fold lower, 2.25 µM
- COc1ccc2nc3ccccc3nc2c1 — within 1.5-fold, 4.11 µM
- Cc1nn2cc(-c3ccc(Cl)cc3)cnc2c1Cl — 1.9-fold higher, 8.04 µM
- COc1ccc(C(=O)c2c[nH]c3ccccc23)cc1 — 1.6-fold lower, 2.64 µM
- O=C(Nc1ccc(C(F)(F)F)cc1)c1ccccc1 — within 1.5-fold, 3.48 µM
- COC(=O)c1cc(-c2ccc(OC)cc2)n[nH]1 — within 1.5-fold, 6.21 µM
- Clc1ccc(-c2nc(C3CCCCC3)no2)cc1 — 3.4-fold lower, 1.23 µM
- CCN(CC)C(=O)c1cc(-c2ccc(Br)cc2)on1 — 2.6-fold lower, 1.63 µM
- CC(NC(=O)c1cc(COc2ccccc2)on1)c1nccs1 (centres undefined) — 5.8-fold lower, 0.721 µM
- c1ccc2c(c1)CC/C2=N/Nc1nc2ccccc2[nH]1 — 4.8-fold lower, 0.86 µM
- COc1ccc2c(c1OC)C(=O)N1c3ccccc3COC21 (centres undefined) — 4.4-fold lower, 0.955 µM
- c1cncc(-c2nc3ccccc3s2)c1 — within 1.5-fold, 3.8 µM
- c1ccc(CSc2ccc(-c3ccc4c(c3)OCO4)nn2)cc1 — 1.7-fold lower, 2.38 µM
- Cc1ccc(O)c(C2=Nc3ccccc3C2(C)C)c1 — 2-fold higher, 8.51 µM

In the case of `COc1ccc(NC(C)=O)cc1S(=O)(=O)Nc1ccccc1C(=O)NCCc1ccccc1`, the AC40 is reported as > 35 µM (inactive).
With `O=C1c2ccccc2NC(c2cccc(Cl)c2)N1N=C1CCCCCC1` (centres undefined) the AC40 was > 35 µM (inactive).
For `c1ccc2oc(CCc3nc4ccccc4o3)nc2c1`, the AC40 was > 35 µM (inactive).
In the case of `CCCCc1nc2cc(C(=O)N3CCN(c4nc(C)cnc4C)CC3)ccc2o1`, the AC40 is reported as > 35 µM (inactive).
